Reference: ChEMBL document CHEMBL1201862, “PubChem BioAssay data set” (2004)
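Values below derive from 48-hour exposures of cells grown in 96-well plates, with endpoints linearly interpolated between the two concentrations bracketing the appropriate inhibition level. GI50 marks 50% less growth.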 Calls of active or inactive are those of the source. Cut-off read from the data, not from the text of the source: active = GI50 up to about 1.1 µM and inactive = higher.

Experiments:
Assay in all cases: NCI-60 cell line screen, 48 h
OVCAR-5 = tested on: OVCAR-5
RXF 393 = tested on: RXF 393
MDA-MB-231 = tested on: MDA-MB-231
NCI/ADR-RES = tested on: NCI/ADR-RES
OVCAR-4 = tested on: OVCAR-4
HCT-116 = tested on: HCT-116
SF-295 = tested on: SF-295
CAKI-1 = tested on: CAKI-1
OVCAR-8 = tested on: OVCAR-8
HCC 2998 = tested on: HCC 2998
SNB-19 = tested on: SNB-19
PC-3 = tested on: PC-3
CCRF-CEM = tested on: CCRF-CEM
SF-539 = tested on: SF-539
COLO 205 = tested on: COLO 205
SNB-75 = tested on: SNB-75
OVCAR-3 = tested on: OVCAR-3
MOLT-4 = tested on: MOLT-4
HT-29 = tested on: HT-29
HL-60 = tested on: HL-60

Measured: GI50

CC(C)=C[C@H]1CCC2(OCCO2)[C@]1(C)CO
inactive: OVCAR-5 > 100 µM | RXF 393 > 100 µM | MDA-MB-231 > 100 µM | NCI/ADR-RES > 100 µM | OVCAR-4 > 100 µM | HCT-116 > 100 µM | SF-295 > 100 µM | CAKI-1 > 100 µM | OVCAR-8 > 100 µM | HCC 2998 > 100 µM | SNB-19 > 100 µM | PC-3 > 100 µM | CCRF-CEM > 100 µM | SF-539 > 100 µM | COLO 205 > 100 µM | SNB-75 > 100 µM

Cn1c(=O)oc2nc(-c3ccccc3)cc(C(F)(F)F)c21
inactive: OVCAR-3 32.8 µM | OVCAR-5 > 100 µM | MDA-MB-231 > 100 µM | NCI/ADR-RES 58.3 µM | OVCAR-4 45.4 µM | HCT-116 9.33 µM | SF-295 > 100 µM | MOLT-4 14.3 µM | CAKI-1 > 100 µM | OVCAR-8 > 100 µM | HCC 2998 > 100 µM | SNB-19 > 100 µM | PC-3 > 100 µM | SF-539 5.3 µM | COLO 205 > 100 µM | SNB-75 > 100 µM | HT-29 33.2 µM

COc1cc(-c2cc(OC)c(OC)c3ccc(Br)cc23)c2cc(Br)ccc2c1OC
inactive: OVCAR-3 21 µM | OVCAR-5 15.9 µM | RXF 393 15.1 µM | MDA-MB-231 22.4 µM | NCI/ADR-RES 33.7 µM | OVCAR-4 15 µM | HCT-116 12.4 µM | SF-295 18.6 µM | MOLT-4 45.7 µM | CAKI-1 47.4 µM | HCC 2998 36.1 µM | SNB-19 39.5 µM | PC-3 20.6 µM | SF-539 21.5 µM | COLO 205 39.5 µM | HT-29 19.2 µM

CN(C)c1ncnc2c1ncn2C1C=CC(COS(N)(=O)=O)C1 (centres undefined)
inactive: OVCAR-3 > 100 µM | RXF 393 66.1 µM | NCI/ADR-RES > 100 µM | OVCAR-4 > 100 µM | HCT-116 > 100 µM | SF-295 > 100 µM | MOLT-4 > 100 µM | CAKI-1 > 100 µM | OVCAR-8 83.6 µM | HCC 2998 > 100 µM | HL-60 > 100 µM | SNB-19 > 100 µM | PC-3 60.7 µM | CCRF-CEM > 100 µM | SF-539 > 100 µM | COLO 205 > 100 µM | SNB-75 > 100 µM | HT-29 > 100 µM

COC(=O)c1ccccc1/C=C1\Cc2ccc(C)c(C)c2C1=O
inactive: OVCAR-3 > 100 µM | OVCAR-5 > 100 µM | RXF 393 > 100 µM | NCI/ADR-RES > 100 µM | OVCAR-4 > 100 µM | HCT-116 > 100 µM | SF-295 77.8 µM | MOLT-4 > 100 µM | CAKI-1 > 100 µM | OVCAR-8 > 100 µM | HCC 2998 > 100 µM | HL-60 > 100 µM | SNB-19 44.5 µM | PC-3 > 100 µM | CCRF-CEM > 100 µM | SF-539 > 100 µM | COLO 205 > 100 µM | SNB-75 35.4 µM | HT-29 > 100 µM

COc1cc(COC(=O)N(CC(=O)O)c2ccccc2)c([N+](=O)[O-])cc1OC
inactive: OVCAR-3 > 100 µM | OVCAR-5 > 100 µM | RXF 393 > 100 µM | NCI/ADR-RES > 100 µM | SF-295 > 100 µM | MOLT-4 > 100 µM | OVCAR-8 > 100 µM | HCC 2998 > 100 µM | HL-60 > 100 µM | SNB-19 > 100 µM | PC-3 > 100 µM | CCRF-CEM > 100 µM | SF-539 > 100 µM | COLO 205 > 100 µM | SNB-75 > 100 µM | HT-29 > 100 µM

CC(=O)OC(C#N)CC(C)(C)/[N+]([O-])=[N+](\[O-])C(C)(C)CC(C#N)OC(C)=O (centres undefined)
inactive: OVCAR-3 16.6 µM | OVCAR-5 23 µM | RXF 393 12.8 µM | MDA-MB-231 14.7 µM | NCI/ADR-RES 22.4 µM | OVCAR-4 17.6 µM | HCT-116 6.7 µM | SF-295 38.3 µM | MOLT-4 3.24 µM | CAKI-1 15 µM | OVCAR-8 16.1 µM | HCC 2998 16.1 µM | SNB-19 23.1 µM | PC-3 15.3 µM | CCRF-CEM 1.73 µM | COLO 205 15.7 µM | SNB-75 15.1 µM | HT-29 18.4 µM

C=C1C(=O)O[C@H]2/C=C(/C)C3=CC(=O)[C@@](C)(C[C@@H](OC(=O)/C(C)=C\C)C12)O3 (some centres undefined)
inactive: OVCAR-5 2.4 µM | MDA-MB-231 3.05 µM | OVCAR-4 3.95 µM | SF-295 12 µM | MOLT-4 1.87 µM | HCC 2998 1.59 µM | PC-3 2.48 µM | SF-539 1.93 µM | SNB-75 8.69 µM
active: RXF 393 0.265 µM | HCT-116 0.377 µM | CAKI-1 0.185 µM | OVCAR-8 0.863 µM | HL-60 < 0.0451 µM | CCRF-CEM 0.0953 µM | COLO 205 0.284 µM | HT-29 0.265 µM

Cc1cc(N(CCC#N)CCC#N)ccc1C(/N=N\c1ccc([N+](=O)[O-])cc1)=N\NC(=O)c1cc(Cl)ccc1O
inactive: OVCAR-3 14.2 µM | OVCAR-5 > 100 µM | RXF 393 28.6 µM | MDA-MB-231 30.3 µM | NCI/ADR-RES 28.7 µM | OVCAR-4 26.5 µM | HCT-116 25.5 µM | SF-295 29.1 µM | MOLT-4 20.3 µM | CAKI-1 40.7 µM | OVCAR-8 19.8 µM | HCC 2998 16.4 µM | SNB-19 34.7 µM | PC-3 23 µM | CCRF-CEM 25.1 µM | SF-539 40.4 µM | COLO 205 25 µM | SNB-75 > 100 µM | HT-29 29.4 µM

CN(C)CCNC(=O)c1cnn(C)c1[N+](=O)[O-]
inactive: OVCAR-3 24.5 µM | OVCAR-5 > 100 µM | RXF 393 65.6 µM | MDA-MB-231 > 100 µM | OVCAR-4 76.7 µM | HCT-116 50.9 µM | SF-295 > 100 µM | MOLT-4 > 100 µM | CAKI-1 > 100 µM | OVCAR-8 > 100 µM | HCC 2998 > 100 µM | HL-60 35.2 µM | SNB-19 > 100 µM | PC-3 36.1 µM | CCRF-CEM > 100 µM | SF-539 > 100 µM | COLO 205 21.6 µM | SNB-75 > 100 µM | HT-29 33.4 µM

CCN(CC)CCC(=O)c1ccc(Oc2ccccc2)cc1
inactive: OVCAR-3 19.7 µM | OVCAR-5 20.7 µM | RXF 393 18.9 µM | MDA-MB-231 20.7 µM | NCI/ADR-RES 21.9 µM | OVCAR-4 23.9 µM | HCT-116 17.9 µM | SF-295 55.3 µM | MOLT-4 20 µM | CAKI-1 16.7 µM | OVCAR-8 39.7 µM | HCC 2998 17.6 µM | SNB-19 18.9 µM | PC-3 39 µM | CCRF-CEM 22.1 µM | SF-539 18.6 µM | COLO 205 17.7 µM | SNB-75 19.5 µM | HT-29 19.1 µM
